Molecules are shown by their SMILES.

Data set [1] deals with T1, CDK1/cyclin B1 (Homo sapiens, UniProt P06493).
T1 construct: purchased
The data set is described as follows: In vitro anti-CDK1/cyclin B1 kinase assay (Kinase-Glo luminescence). The note with it: for inhibition at 20 µM: test compounds at 20 μM, read-out: Inhibition rates (%) CDK1; for Selectivity: CDK1 compared with CDK4 (CDK4 IC50 / CDK1 IC50). Format: biochemical. As to the method: (§1) In vitro anti-CDK1/cyclin B1 and CDK4/cyclin D3 assays were performed as described by the manufacturer. All test compounds and controls were dissolved in dimethyl sulfoxide (DMSO) to prepare 50 μM stock solutions. The stock solutions were diluted by double-distilled water and buffer to 40, 30, 20, and 10 μM working concentrations and stored at −20°C. Buffer, ATP, CDK substrate […], and distilled water were mixed, and then 25 μl of the mixture was added to a 96-well plate. Five microliters of 20 μM test compounds were sequentially added. CDK1/cyclin B1 was diluted to 1 ng/μl, and CDK4/cyclin D3 was diluted to 10 ng/μl using a buffer. Twenty microliters of the kinase solutions were incubated with the test compounds at 30°C for 45 min for CDK1/cyclin B1 and for 60 min for CDK4/cyclin D3. Finally, 50 μl of Kinase-Glo Max reagent was added to each well. The 96-well plate was covered with aluminum foil and incubated at room temperature for 15 min. Luminescence of the test compounds was measured with a microplate reader.
On the technique in general: In Kinase-Glo more light means more ATP remaining.

For data set [2], the target named is T2, CDK4/cyclin D3 (Homo sapiens, UniProt P11802).
T2 construct: purchased
Description: In vitro anti-CDK4/cyclin D3 kinase assay (Kinase-Glo luminescence). The note with it: for inhibition at 20 µM: test compounds at 20 μM, read-out: Inhibition rates (%) CDK4. Format: biochemical. On the procedure: as §1

T2 sequence (P11802 whole entry): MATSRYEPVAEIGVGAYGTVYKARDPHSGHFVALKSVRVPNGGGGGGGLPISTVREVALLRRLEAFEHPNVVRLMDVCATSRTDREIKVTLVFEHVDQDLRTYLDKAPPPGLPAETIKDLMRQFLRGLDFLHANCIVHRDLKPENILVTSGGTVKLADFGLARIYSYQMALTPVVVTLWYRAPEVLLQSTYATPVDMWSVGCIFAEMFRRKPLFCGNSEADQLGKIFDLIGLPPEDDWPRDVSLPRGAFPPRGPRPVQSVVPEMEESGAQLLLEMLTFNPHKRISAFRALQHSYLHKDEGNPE
T2 sequence (P30281 whole entry partner): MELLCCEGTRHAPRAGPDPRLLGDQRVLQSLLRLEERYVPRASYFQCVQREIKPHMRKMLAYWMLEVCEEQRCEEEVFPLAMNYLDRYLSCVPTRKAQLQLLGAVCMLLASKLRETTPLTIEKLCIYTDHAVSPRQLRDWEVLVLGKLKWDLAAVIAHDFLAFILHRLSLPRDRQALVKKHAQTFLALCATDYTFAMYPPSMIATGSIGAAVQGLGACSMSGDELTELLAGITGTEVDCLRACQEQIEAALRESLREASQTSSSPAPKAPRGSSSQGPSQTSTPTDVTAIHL
T1 sequence (P06493 whole entry): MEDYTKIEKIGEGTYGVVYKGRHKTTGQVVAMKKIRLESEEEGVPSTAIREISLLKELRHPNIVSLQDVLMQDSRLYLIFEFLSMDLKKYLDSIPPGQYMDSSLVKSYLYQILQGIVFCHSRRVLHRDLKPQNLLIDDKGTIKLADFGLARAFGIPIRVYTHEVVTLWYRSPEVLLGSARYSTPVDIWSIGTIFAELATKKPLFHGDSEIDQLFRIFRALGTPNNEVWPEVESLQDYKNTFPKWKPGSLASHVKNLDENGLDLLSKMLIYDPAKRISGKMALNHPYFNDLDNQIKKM
T1 sequence (P14635 whole entry partner): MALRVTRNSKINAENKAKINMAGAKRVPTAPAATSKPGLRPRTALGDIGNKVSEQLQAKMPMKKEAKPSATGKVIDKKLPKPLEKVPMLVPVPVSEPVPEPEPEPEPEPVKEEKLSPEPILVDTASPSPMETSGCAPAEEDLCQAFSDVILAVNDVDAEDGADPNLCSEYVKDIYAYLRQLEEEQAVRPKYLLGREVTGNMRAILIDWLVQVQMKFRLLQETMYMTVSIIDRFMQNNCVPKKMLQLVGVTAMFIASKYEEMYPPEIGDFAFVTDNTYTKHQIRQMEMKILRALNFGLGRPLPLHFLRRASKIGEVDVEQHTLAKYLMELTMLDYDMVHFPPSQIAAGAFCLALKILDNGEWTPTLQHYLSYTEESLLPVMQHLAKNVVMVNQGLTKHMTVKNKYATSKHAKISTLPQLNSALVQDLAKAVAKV

By inhibition is commonly meant the change of the read-out against control, counted positive when it falls. With `O=c1cc(-c2ccccc2)oc2c(CN3CCOCC3)c(O)c(O)c(O)c12` [Compound 1a], the inhibition at 20 µM in data set [1] worked out at 25.48 ± 0.11%; in data set [2], 6.71 ± 0.07%.
Take `O=c1cc(-c2ccccc2)oc2c(CN3CCSCC3)c(O)c(O)c(O)c12` [Compound 1b]: the inhibition at 20 µM in data set [1] amounted to 31.71 ± 0.08%; in data set [2], 0.09 ± 0.03%.
As to `CN(C)Cc1c(O)c(O)c(O)c2c(=O)cc(-c3ccccc3)oc12` [Compound 1c], the inhibition at 20 µM in data set [1] turned out to be 29.28 ± 0.11%.
Consider `CCCN(CCC)Cc1c(O)c(O)c(O)c2c(=O)cc(-c3ccccc3)oc12` [Compound 1d], for which the inhibition at 20 µM in data set [1] worked out at 31.11 ± 0.1%; in data set [2] it was 2.47 ± 0.08%.
What is called melting point is the temperature of the solid-liquid transition. `O=c1cc(-c2ccccc2)oc2c(CN3CCSCC3)c3c(c(O)c12)OCCCCO3` [Compound 2b, 12-Hydroxy-9-phenyl-7-(thiomorpholinomethyl)-2,3,4,5-tetrahydro-[1,4]dioxocino[2,3-g]chromen-11-one] displayed a melting point of 202.3 to 203.6 °C. In data set [1], the inhibition at 20 µM turned out to be 27.19 ± 0.07%. Further, the inhibition at 20 µM in data set [2] was determined as 10.18 ± 0.08%.
In turn, `CN(C)Cc1c2c(c(O)c3c(=O)cc(-c4ccccc4)oc13)OCCCCO2` [Compound 2c, 7-((Dimethylamino)methyl)-12-hydroxy-9-phenyl-2,3,4,5-tetrahydro-[1,4]dioxocino[2,3-g]chromen-11-one] showed a melting point of 208.5 to 210.6 °C. For the same compound, in data set [1], the inhibition at 20 µM was determined as 29.4 ± 0.09%. The inhibition at 20 µM in data set [2] stood at 10.96 ± 0.09%.
The term IC50 denotes the point on the concentration scale where inhibition reaches its midpoint. Read a high IC50 as a need for much substance. With `O=c1cc(-c2ccccc2)oc2c(CN3CCOCC3)c(OCc3ccccc3)c(O)c(O)c12` [Compound 3a, 7-(Benzyloxy)-5,6-dihydroxy-8-(morpholinomethyl)-2-phenyl-4H-chromen-4-one], the melting point was in the range of 218.3 to 219.8 °C. Further, in data set [1], the midpoint of inhibition, the IC50, lay at 42.2 ± 1.62 µM; the Selectivity is 12.88; the inhibition at 20 µM amounted to 38.11 ± 0.09%. Moreover, in data set [2], the IC50 worked out at 543.8 ± 4.83 µM and the inhibition at 20 µM turned out to be 2.73 ± 0.06%.
In turn, `CCCN(CCC)Cc1c(OCCCCBr)c(O)c(O)c2c(=O)cc(-c3ccccc3)oc12` [Compound 3b, 7-(4-Bromobutoxy)-8-((dipropylamino)methyl)-5,6-dihydroxy-2-phenyl-4H-chromen-4-one] displayed a melting point of 216.2 to 221.8 °C. Further, the inhibition at 20 µM in data set [1] came to 25.33 ± 0.11%. Moreover, the inhibition at 20 µM in data set [2] turned out to be 6.01 ± 0.07%.
With `O=c1cc(-c2ccccc2)oc2cc(O)c(CN3CCCC3)c(O)c12` [Compound 4a, 5,7-Dihydroxy-2-phenyl-6-(pyrrolidin-1-ylmethyl)-4H-chromen-4-one], the melting point is 195.2 to 196.3 °C. In addition, the inhibition at 20 µM in data set [1] turned out to be 31.72 ± 0.1%.
In turn, `CN1CCN(Cc2c(O)cc3oc(-c4ccccc4)cc(=O)c3c2O)CC1` [Compound 4b, 5,7-Dihydroxy-6-((4-methylpiperazin-1-yl)methyl)-2-phenyl-4H-chromen-4-one] came in with a melting point of 179.5 to 180.1 °C. In addition, the inhibition at 20 µM in data set [1] came out at 28.14 ± 0.12%.
For the compound `O=c1cc(-c2ccccc2)oc2c(CN3CCCC3)c(O)c(CN3CCCC3)c(O)c12` [Compound 5a, 5,7-Dihydroxy-2-phenyl-6,8-bis(pyrrolidin-1-ylmethyl)-4H-chromen-4-one], the melting point lay in the range of 194.9 to 196.6 °C. For the same compound, the inhibition at 20 µM in data set [1] came out at 29 ± 0.12%. Further, in data set [2], the inhibition at 20 µM amounted to 7.22 ± 0.08%.
`O=c1cc(-c2ccccc2)oc2c(CN3CC=CC3)c(O)c(CN3CC=CC3)c(O)c12` [Compound 5b, 6,8-Bis((2H-pyrrol-1(5H)-yl)methyl)-5,7-dihydroxy-2-phenyl-4H-chromen-4-one] showed a melting point of 172.7 to 174.3 °C. The inhibition at 20 µM in data set [1] was 28.66 ± 0.11%.
In the case of `O=c1cc(-c2ccccc2)oc2c(CN3CCSCC3)c(O)c(CN3CCSCC3)c(O)c12` [Compound 5d, 5,7-Dihydroxy-2-phenyl-6,8-bis(thiomorpholinomethyl)-4H-chromen-4-one], the melting point was 211 to 212.4 °C. The inhibition at 20 µM in data set [1] amounted to 30.39 ± 0.09%.
Turning to `CN1CCN(Cc2c(O)c(CN3CCN(C)CC3)c3oc(-c4ccccc4)cc(=O)c3c2O)CC1` [Compound 5e, 5,7-Dihydroxy-6,8-bis((4-methylpiperazin-1-yl)methyl)-2-phenyl-4H-chromen-4-one], the inhibition at 20 µM in data set [1] was 26.75 ± 0.1%.
As for `O=c1cc(-c2ccccc2)oc2c(CN3CCCC3)c(O)cc(O)c12` [Compound 6a, 5,7-Dihydroxy-2-phenyl-8-(pyrrolidin-1-ylmethyl)-4H-chromen-4-one], the melting point was 192.9 to 193 °C. In data set [1], it took 51.4 ± 1.68 µM to reach half-maximal inhibition (IC50), the Selectivity is 4.45 and the inhibition at 20 µM came to 35.95 ± 0.09%. In data set [2], the midpoint of inhibition, the IC50, lay at 229 ± 4.55 µM and the inhibition at 20 µM worked out at 6.3 ± 0.07%.
Consider `O=c1cc(-c2ccccc2)oc2c(CN3CCOCC3)c(O)cc(O)c12` [Compound 6b, 5,7-Dihydroxy-8-(morpholinomethyl)-2-phenyl-4H-chromen-4-one], for which the melting point was 217.6 to 219.5 °C. The inhibition at 20 µM in data set [1] stood at 34.47 ± 0.12%. Moreover, the inhibition at 20 µM in data set [2] turned out to be 9.36 ± 0.09%.
`O=c1cc(-c2ccccc2)oc2c(CN3CCSCC3)c(O)cc(O)c12` [Compound 6c, 5,7-Dihydroxy-2-phenyl-8-(thiomorpholinomethyl)-4H-chromen-4-one]: the melting point is 218.3 to 219.5 °C. The inhibition at 20 µM in data set [1] was 34.19 ± 0.1%. Further, in data set [2], the inhibition at 20 µM is 9.87 ± 0.09%.
Taken in the same sequence, the figures for `CN(C)Cc1c(O)cc(O)c2c(=O)cc(-c3ccccc3)oc12` [Compound 6d, 8-((Dimethylamino)methyl)-5,7-dihydroxy-2-phenyl-4H-chromen-4-one] were 241.9 to 242.3 °C, 31.24 ± 0.08% and 7.46 ± 0.06%.
With `O=c1cc(-c2ccccc2)oc2cc(OCc3ccccc3)cc(O)c12` [Compound 7a, 7-(Benzyloxy)-5-hydroxy-2-phenyl-4H-chromen-4-one], in data set [1], it took 55 ± 1.45 µM to reach half-maximal inhibition (IC50), the Selectivity amounted to 2.37 and the inhibition at 20 µM was found to be 39.51 ± 0.06%. The compound further gave an IC50 in data set [2] of 130 ± 2.84 µM.
On to `COc1cc(O)c2c(=O)cc(-c3ccccc3)oc2c1` [Compound 7b, 5-Hydroxy-7-methoxy-2-phenyl-4H-chromen-4-one], for which the inhibition at 20 µM was 21.27 ± 0.09% in data set [1] and 1.76 ± 0.05% in data set [2].
The compound `O=c1cc(-c2ccccc2)oc2cc(OCCBr)cc(O)c12` [Compound 7c, 7-(2-Bromoethoxy)-5-hydroxy-2-phenyl-4H-chromen-4-one] displayed a melting point of 169.3 to 170.1 °C. The inhibition at 20 µM in data set [1] was 22.74 ± 0.11%.
`O=c1cc(-c2ccccc2)oc2cc(OCCCCBr)cc(O)c12` [Compound 7d, 7-(4-Bromobutoxy)-5-hydroxy-2-phenyl-4H-chromen-4-one] gave a melting point of 162.6 to 163.6 °C. Also, in data set [1], the inhibition at 20 µM was 19.74 ± 0.11%. Further, the inhibition at 20 µM in data set [2] amounted to 1.83 ± 0.06%.
`COc1cc2oc(-c3ccccc3)cc(=O)c2c(O)c1CN1CCOCC1` [Compound 8a, 5-Hydroxy-7-methoxy-6-(morpholinomethyl)-2-phenyl-4H-chromen-4-one]: the melting point lay within 187 to 188.6 °C. Also, in data set [1], the inhibition at 20 µM was 31.04 ± 0.1%.
Consider `COc1cc2oc(-c3ccccc3)cc(=O)c2c(O)c1CN1CCSCC1` [Compound 8b, 5-Hydroxy-7-methoxy-2-phenyl-6-(thiomorpholinomethyl)-4H-chromen-4-one], for which the melting point was 210.3 to 212 °C. Further, the inhibition at 20 µM in data set [1] is 20.47 ± 0.08%.
The corresponding values for `COc1ccc(-c2cc(=O)c3c(O)c(CN4CCSCC4)c(O)c(CN4CCSCC4)c3o2)cc1` [Compound 10b, 5,7-Dihydroxy-2-(4-methoxyphenyl)-6,8-bis(thiomorpholinomethyl)-4H-chromen-4-one] are 214.2 to 215.5 °C and 29.54 ± 0.11%.
The corresponding values for `COc1ccc(-c2cc(=O)c3c(O)cc(O)c(CN4CCSCC4)c3o2)cc1` [Compound 11a, 5,7-Bihydroxy-2-(4-methoxyphenyl)-8-(thiomorpholinomethyl)-4H-chromen-4-one] are 211 to 213.4 °C and 26.12 ± 0.1%.
As for `COc1ccc(-c2cc(=O)c3c(O)cc(OC)cc3o2)cc1` [Compound 12b, 5-Hydroxy-7-methoxy-2-(4-methoxyphenyl)-4H-chromen-4-one], the inhibition at 20 µM in data set [1] amounted to 32.4 ± 0.11%; in data set [2] it was 7.93 ± 0.08%.
For `COc1ccc(-c2cc(=O)c3c(O)cc(O)cc3o2)cc1` [acacetin, reference compound], in data set [1], the IC50 amounted to 31.9 ± 1.08 µM, the Selectivity stood at 6.45 and the inhibition at 20 µM stood at 34.64 ± 0.11%. In addition, in data set [2], the IC50 was 206 ± 3.61 µM and the inhibition at 20 µM turned out to be 10.44 ± 0.07%.
`O=c1cc(-c2ccccc2)oc2cc(O)c(O)c(O)c12` [baicalein, reference compound]: in data set [1], the IC50 turned out to be 62.7 ± 1.52 µM, the Selectivity is reported as 5.65 and the inhibition at 20 µM stood at 18.85 ± 0.09%. Half-maximal inhibition in data set [2] (IC50) was put at 354 ± 5.67 µM.
Taken in the same sequence, the figures for `O=c1cc(-c2ccccc2)oc2cc(O)cc(O)c12` [chrysin, reference compound] were 36.6 ± 1.23 µM, 6.13, 32.77 ± 0.09% and 225 ± 3.46 µM.

(Values after publication PMC9393241, “Design, Synthesis, and Activity Assays of Cyclin-Dependent Kinase 1 Inhibitors With Flavone Scaffolds” (Frontiers in Chemistry, 2022).)
